How the values were obtained:
human chymase = target: T1, human chymase (Homo sapiens, UniProt P23946); test: Determination of chymase-inhibiting activity (Test Example 1); format: biochemical; settings: activated human recombinant chymase; substrate succinyl-alanyl-histidyl-prolyl-phenylalanyl-para-nitroanilide; buffer pH 8.0; room temperature, 5 minutes; absorbance at 405 nm; read-out: 50% inhibitory concentrations (IC50) against the human chymase
T1 construct: made in house; host or cells: insect cells (Tn5) infected with recombinant baculovirus
T1 sequence (P23946 22-247): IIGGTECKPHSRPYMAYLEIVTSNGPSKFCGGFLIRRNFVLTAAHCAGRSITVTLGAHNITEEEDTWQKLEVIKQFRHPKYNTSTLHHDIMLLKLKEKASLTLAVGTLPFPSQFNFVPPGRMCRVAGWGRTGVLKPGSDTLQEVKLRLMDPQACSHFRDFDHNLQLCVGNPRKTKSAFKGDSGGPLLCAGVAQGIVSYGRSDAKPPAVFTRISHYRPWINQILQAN
Description: In this Example, the chymase-inhibiting activity of SF2809 substances was determined as described below.
A human recombinant chymase was prepared in accordance with the method of Urata et al's report (Urata et al., J. Biol. Chem., Vol. 266, p.17173, 1991). Thus, cultivation was made of insect cells (Tn5) which had been infected with recombinant baculovirus containing therein such cDNA that encodes the human chymase. The resulting culture of the insect cells was filtered and the resultant supernatant was treated with Heparin-sepharose (Pharmacia's product) to recover the chymase. The chymase so recovered was then purified. Then, the purified chymase was activated in accordance with the method of Murakami et al's report (Murakami et al, J. Biol. Chem., Vol. 270, p.2218, 1991), after which the activated chymase was purified with Heparin-sepharose to afford an activated type of human chymase.
To 50 μl of a buffer A (comprising 0.5˜3.0 M NaCl, 50 mM tris hydrochloric acid, pH 8.0) which contained 1˜5 ng of the active-type of human chymase as prepared in (1) above, there was added 2 μl of a solution in dimethylsulfoxide (DMSO) of an SF2809 substance as the test substance. Then, to the resulting mixture, there was added 50 μl of a buffer A which contained 0.5 mM of succinyl-alanyl-histidyl-prolyl-phenylalanyl-para-nitroanilide (Buckem's product) as a substrate. The resultant admixture was incubated at room temperature for 5 minutes. The change in the absorbance at 405 nm of the reaction solution was measured with passage of the incubation time, thereby to examine the chymase-inhibiting activity of the SF2809 substance under test.

[1] = Solubility (physicochemical properties); settings: in methanol, ethyl acetate, dimethylsulfoxide, chloroform, hexane and water; result in words

In the case of `Cn1c(=O)c(C(c2ccccc2)c2[nH]c3ccccc3c2CCO)c(O)c2ccccc21` (stereo not drawn) [SF2809-VI substance], the IC50 (human chymase) is reported as 0.014 µM and the Solubility [1] is reported as “Soluble in methanol, ethyl acetate, dimethylsulfoxide and chloroform; and insoluble in hexane and water”.

For `Cn1c(=O)c(C(c2ccc(O)cc2)c2[nH]c3ccccc3c2CCO)c(O)c2ccccc21` (stereo not drawn) [SF2809-IV substance], the IC50 (human chymase) was 0.081 µM and the Solubility [1] was “Soluble in methanol, ethyl acetate and dimethylsulfoxide; sparingly soluble in chloroform; and insoluble in hexane and water”.

With `CC(=O)NCCc1c(C(c2ccccc2)c2c(O)c3ccccc3n(C)c2=O)[nH]c2ccccc12` (stereo not drawn) [SF2809-V substance] the IC50 (human chymase) was 0.043 µM and the Solubility [1] was “Soluble in methanol, ethyl acetate, dimethylsulfoxide and chloroform; and insoluble in hexane and water”.

For `Cn1c(=O)c(Cc2[nH]c3ccccc3c2CCO)c(O)c2ccccc21` [SF2809-III substance], the IC50 (human chymase) was 2.1 µM and the Solubility [1] was “Soluble in methanol, ethyl acetate and dimethylsulfoxide; sparingly soluble in chloroform; and insoluble in hexane and water”.

In the case of `CC(=O)NCCc1c(C(c2ccc(O)cc2)c2c(O)c3ccccc3n(C)c2=O)[nH]c2ccccc12` (stereo not drawn) [SF2809-II substance], the IC50 (human chymase) is reported as 0.041 µM and the Solubility [1] is reported as “Soluble in methanol, ethyl acetate and dimethylsulfoxide; sparingly soluble in chloroform; and insoluble in hexane and water”.

For `CC(=O)NCCc1c(Cc2c(O)c3ccccc3n(C)c2=O)[nH]c2ccccc12` [SF2809-I substance], the IC50 (human chymase) was 7.3 µM and the Solubility [1] was “Soluble in methanol, ethyl acetate and dimethylsulfoxide; sparingly soluble in chloroform; and insoluble in hexane and water”.

— patent US6432978B1, “SF2809-I,II,III,IV,V and VI substances exhibiting chymase-inhibiting activities” (Meiji Seika Kaisha, Ltd., priority 1998, dated 2002)
